The record followed here is PMC6804243, “Small-Molecule Inhibition of UBE2T/FANCL-Mediated Ubiquitylation in the Fanconi Anemia Pathway” (ACS Chemical Biology, 2019).

The subject of data set [1] is mUb-FANCD2 (UBE2T and FANCL-dependent monoubiquitylation of FANCD2). Put plainly: Immunoblot of mUb-FANCD2 formation in U2OS cells. In kind it is cell-based. Conditions: for level of mUb-FANCD2 in response to HU: CU1 200 μM or CU2 500 μM, 8 h; for level of mUb-FANCD2 in response to HU / level of mUb-FANCD2: HU 2.5 mM; for level of mUb-FANCD2: compound 100 μM, 1 h preincubation, 24 h. The method, then: (§1) U2OS cells were treated with HU and the formation of mUb-FANCD2 in the presence of CU 1, CU2, and CU9 was evaluated relative to a DMSO control. Following a 1-h preincubation with the compounds, cells were treated with 2.5 mM of HU for 24 h. […] Accordingly, cells were treated with a higher concentration of compounds in further experiments.
Figure 3 Cell-based assays with CU1 and CU2: (a) Western blot showing that the formation of mUb-FANCD2(*), in response to HU treatment (2.5 mM, 8 h), is impaired in U2OS cells in the presence of CU1 (200 μM) or CU2 (500 μM). Ratio = mUb-FANCD2/FANCD2 (normalized to DMSO control). mUb-FANCD2 was resolved on a separate gel. PARP1 was used as a loading control for each gel, as well as to assess apoptosis. (b) Quantification of the reduction in mUb-FANCD2, in response to HU treatment (2.5 mM, 8 h) in the presence of CU1 (200 μM) or CU2 (500 μM). Mean calculated from three independent experiments. (c) Western blot showing that formation of mUb-FANCD2 (denoted by an asterisk symbol, *) in response to cisplatin treatment (10 μM) for 6, 12, and 24 h is impaired in U2OS cells in the presence of CU2 (500 μM). Ratio = mUb-FANCD2/FANCD2 (normalized to DMSO control). (d) Cell cycle analyses based upon EdU incorporation in cells treated with HU (2.5 mM, 8 h) in the presence or absence of CU1 (200 μM) or CU2 (500 μM). HU treatment was used for gating purposes. […] TEXT PRINTED IN THE PICTURE: (d) DMSO: S-phase 42.7; G1 29.2; G2-M 27.8 | (d) HU: S-phase 0.24; G1 72.4; G2-M 22.9 | (d) CU1: S-phase 43.4; G1 26.8; G2-M 29.1 | (d) CU2: S-phase 39.7; G1 31.9; G2-M 28.2 DOUBTS OF THE COPYIST ABOUT THIS PICTURE: Panel d print is small, so these digits are best readings: DMSO G2-M 27.8 (8 or 6); CU1 G1 26.8 (6 or 8); CU2 S-phase 39.7 (9 or 8); CU2 G2-M 28.2 (8 or 6) / Panels a and c: the lane ratios printed under the western blots (a: 1.0, 0.64, 0.40; c: 1.0/0.65, 1.0/0.63, 1.0/0.53) were left out because they belong to blots and the picture prints no measure for them […]
Reaction mixtures were incubated for the indicated time at 37 °C and stopped by the addition of 2X reducing SDS -PAGE sample buffer, separated on NuPAGE Novex 4 –12% Bis/Tris gradient gels (Invitrogen) and visualized by Western blotting using the indicated antibodies (Table S3).
Cell culture. U2OS cells were cultured at 37 °C in a humidified atmosphere and 5% (v/v) CO2 in Dulbecco's Modified Eagle Medium (DMEM; Sigma-Aldrich) supplemented with 10% (v/v) fetal bovine serum (FBS), 100 units/ml of penicillin, […] of streptomycin and 292 μg/mL L-glutamine.
Cell extract preparation and immunoblotting. U2OS cells were lysed in buffer containing 50 mM Tris-HCl pH 7.5, 2% SDS, 10 mM NEM, cocktail protease inhibitor (Roche) and phosphatase inhibitor cocktail followed by sonication 100 µg of extracts were boiled for 5 mins at 95 °C in 5X loading buffer and loaded onto NuPAGE Novex 4–12% Bis/Tris gradient gels
(Invitrogen), or NuPAGE Novex 3-8% Tris/Acetate gradient gels (Invitrogen) for detection of mUb-FANCD2. After separation the gels were transferred to PVDF and the membranes were blocked with Tris-buffered saline containing 0.1% (v/v) Tween-20 (TBST) and 5% (v/v) bovine serum albumin (BSA) and incubated with the indicated primary and secondary antibodies. mUb-FANCD2 intensity was quantified using Image Studio (LI-COR).
IncuCyte cell proliferation assays. 2000 U2OS cells were seeded per well in 96-well plates and treated with compounds 24 hours afterwards. After 1 hour of compound treatment, 15 µM carboplatin (Sigma-Aldrich) was added and the cells were cultured in an incubator with an IncuCyte microscopy -platform (Essen BioScience). Phase -contrast images were acquired every 6 hours for 8 days until DMSO-carboplatin treated cells reached >80% confluence. Cell proliferation was monitored as the occupied area (% confluence) of cell images over time and calculated as percentage confluence over time. Cell confluency […]
A general note: A western blot detects proteins with antibodies after separation by electrophoresis.

Data set [2] concerns T1, UBE2T / GST-FANCLRING
T1 construct: the RING domain (residues 275–375) of the E3 FANCL (FANCLRING); His6 (N); made in house; host or cells: E. coli Rosetta (DE3)
Put plainly: Gel-based ubiquitylation assay, E2 = UBE2T, E3 = GST-FANCLRING
As to conditions: compound 100 μM, 30 min at 37 °C, Western blot. In kind it is biochemical.

Data set [3] concerns U2OS cells. Put plainly: Tolerance / cytotoxicity of compounds in U2OS cells. In kind it is cell-based. Conditions: compound at 500 μM, 8 h assay. The method, then: as §1

“Also recorded” adds a separate entry of the source.

For the molecule `NCCN1C(=O)CC[C@H]2CN(Cc3cccc(-c4ccco4)c3)CC[C@H]21` [CU1], in data set [1], the “level of mUb-FANCD2 in response to HU” value is “reduced the level of mUb-FANCD2” and the “level of mUb-FANCD2” value was “no significant decrease in the level of mUb-FANCD2”. Moreover, the “ubiquitylation of GST-FANCLRING (mUb-GST-FANCLRING band)” value (from here on “ubiquitylation of GST-FANCLRING”) in data set [2] is “no ubiquitylation of FANCLRING was observed; also recorded: inhibit the ubiquitylation of GST-FANCLRING”. Further, the “ubiquitylation of GST-FANCLRING” value in data set [2] (listed as CU 1) is given as “completely inhibited the ubiquitylation of GST-FANCLRING”.

With `CCN1CCN(c2cc(C)nc3nc(CN4CCCCC4C)nn23)CC1` (stereo not shown) [CU2], in data set [1], the “level of mUb-FANCD2 in response to HU” value is given as “reduced the level of mUb-FANCD2” and the “level of mUb-FANCD2” value is reported as “no significant decrease in the level of mUb-FANCD2”. In addition, the “level of mUb-FANCD2 in response to cisplatin” value in data set [1] (CU2 500 μM, cisplatin 10 μM for 6, 12 and 24 h) was “reduced the level of mUb-FANCD2”. The “ubiquitylation of GST-FANCLRING” value in data set [2] was “no ubiquitylation of FANCLRING was observed; also recorded: inhibit the ubiquitylation of GST-FANCLRING; also recorded: completely inhibited the ubiquitylation of GST-FANCLRING”. Also, the tolerance by cells result in data set [3] is “tolerated”.

With `Cc1nnc(N(C)CC2CCN(CC(C)O)CC2)c(C#N)c1C` (stereo not shown) [CU9], in data set [1], the “level of mUb-FANCD2” value is given as “no significant decrease in the level of mUb-FANCD2”. Also, the “ubiquitylation of GST-FANCLRING” value in data set [2] is recorded as “no ubiquitylation of FANCLRING was observed; also recorded: inhibit the ubiquitylation of GST-FANCLRING; also recorded: completely inhibited the ubiquitylation of GST-FANCLRING”. Moreover, in data set [3], the tolerance by cells result was “tolerated”.

As to `NC(=O)[C@@H]1CCCN1C(=O)c1cc(-n2cccc2)ccc1Cl` [CU12], the “ubiquitylation of GST-FANCLRING” value in data set [2] was “no ubiquitylation of FANCLRING was observed”.
